How the values were obtained:
corn = assay: Test B pre/postemergence corn; type: in vivo, Zea mays
Procedure, shortened: (§1)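 Test chemicals in a non-phytotoxic solvent mixture with surfactant were sprayed preemergence onto planted seeds and postemergence onto plants 2 to 18 cm tall (1- to 4-leaf stage). After twelve to sixteen days in a greenhouse, injury was visually rated against untreated controls from 0 (no effect) to 10 (complete control).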

rice = assay: Test B flood test rice; type: in vivo, Oryza sativa
Procedure, shortened: (§2)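 Flood test on plants grown to the 2-leaf stage; treated plants kept in greenhouse twelve to sixteen days, then visually rated against controls on a 0 (no effect) to 10 (complete control) scale.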

surinam grass = assay: Test B pre/postemergence surinam grass; type: in vivo, Brachiaria decumbens
Procedure, shortened: as §1

bedstraw = assay: Test B pre/postemergence bedstraw; type: in vivo, Galium aparine; conditions: Postemergence
Procedure, shortened: as §1

rape = assay: Test B pre/postemergence rape; type: in vivo, Brassica napus
Procedure, shortened: as §1

smallflower flatsedge = assay: Test B flood test smallflower flatsedge; type: in vivo, Cyperus difformis
Procedure, shortened: as §2

velvetleaf = assay: Test B pre/postemergence velvetleaf; type: in vivo, Abutilon theophrasti
Procedure, shortened: as §1

cocklebur = assay: Test B pre/postemergence cocklebur; type: in vivo, Xanthium strumarium
Procedure, shortened: as §1

bamyardgrass = assay: Test B flood test barnyardgrass; type: in vivo, Echinochloa crus-galli
Procedure, shortened: as §2

wheat = assay: Test B pre/postemergence wheat; type: in vivo, Triticum aestivum
Procedure, shortened: as §1

duck salad = assay: Test B flood test duck salad; type: in vivo, Heteranthera limosa
Procedure, shortened: as §2

wild oat = assay: Test B pre/postemergence wild oat; type: in vivo, Avena fatua
Procedure, shortened: as §1

crabgrass = assay: Test B pre/postemergence crabgrass; type: in vivo, Digitaria sanguinalis
Procedure, shortened: as §1

blackgrass = assay: Test B pre/postemergence blackgrass; type: in vivo, Alopecurus myosuroides
Procedure, shortened: as §1

purple nutsedge = assay: Test B pre/postemergence purple nutsedge; type: in vivo, Cyperus rotundus
Procedure, shortened: as §1

soybean = assay: Test B pre/postemergence soybean; type: in vivo, Glycine max
Procedure, shortened: as §1

sugar beet = assay: Test B pre/postemergence sugar beet; type: in vivo, Beta vulgaris
Procedure, shortened: as §1

[1] = Postemergence, Rate 62 g/ha, scale 0 to 10, 0 is no effect, 10 is complete control
[2] = Postemergence, Rate 125 g/ha, scale of 0 to 10 where 0 is no effect and 10 is complete control
[3] = Postemergence, Rate 250 g/ha, scale of 0 to 10, 0 is no effect, 10 is complete control
[4] = Postemergence, Rate 500 g/ha, scale of 0 to 10 where 0 is no effect and 10 is complete control
[5] = Preemergence, Rate 62 g/ha, scale 0 to 10 (0 no effect, 10 complete control)
[6] = Preemergence, Rate 125 g/ha, scale of 0 to 10 where 0 is no effect and 10 is complete control
[7] = Preemergence, Rate 250 g/ha, scale 0 to 10 (0 no effect, 10 complete control)
[8] = Preemergence, Rate 500 g/ha, scale of 0 to 10 where 0 is no effect and 10 is complete control
[9] = Rate 62 g/ha, flood test species, Pre-emergence, visual evaluation after twelve to sixteen days
[10] = Rate 125 g/ha, under heading Pre-emergence, flood test species, visual evaluation after twelve to sixteen days
[11] = Rate 250 g/ha, Pre-emergence (flood test species), scale 0 to 10, 0 is no effect, 10 is complete control
[12] = Rate 500 g/ha, Pre-emergence section of Table B, 0 to 10 scale (0 no effect, 10 complete control)

## CC(=O)N(C)CCn1c(=O)on(C(=O)N(c2ccc(F)cc2)C(C)C)c1=O [Compound 625]
corn; [1]
  Plant response rating, Corn: 0
corn; [2]
  Plant response rating, Corn: 0
corn; [3]
  Corn plant response rating: 0
corn; [4]
  Plant response rating, Corn: 3
corn; [5]
  Corn plant response rating: 0
corn; [6]
  Corn plant response rating: 0
corn; [7]
  Plant response rating, Corn: 0
corn; [8]
  Plant response rating, Corn: 3
rice; [9]
  Plant response rating, Rice (0 to 10 scale, 0 is no effect, 10 is complete control): 0
rice; [10]
  Rice plant response rating (0 to 10 scale, 0 is no effect, 10 is complete control): 0
rice; [11]
  Rice plant response rating: 0
rice; [12]
  Rice plant response rating: 0
Surinam grass; [1]
  Plant response rating, B. signalgrass: 0
Surinam grass; [2]
  Plant response rating, B. signalgrass: 0
Surinam grass; [3]
  B. signalgrass plant response rating: 2
Surinam grass; [4]
  Plant response rating, B. signalgrass: 5
Surinam grass; [5]
  B. signalgrass plant response rating: 0
Surinam grass; [6]
  B. signalgrass plant response rating: 4
Surinam grass; [7]
  Plant response rating, B. signalgrass: 8
Surinam grass; [8]
  Plant response rating, B. signalgrass: 10
bedstraw; Rate 62 g/ha, scale 0 to 10, 0 is no effect, 10 is complete control
  Plant response rating, Bedstraw: 0
bedstraw; Rate 125 g/ha, scale of 0 to 10 where 0 is no effect and 10 is complete control
  Plant response rating, Bedstraw: 0
rape; [1]
  Plant response rating, Rape: 0
rape; [2]
  Plant response rating, Rape: 0
rape; [3]
  Rape plant response rating: 0
rape; [4]
  Plant response rating, Rape: 0
rape; [5]
  Rape plant response rating: 0
rape; [6]
  Rape plant response rating: 0
rape; [8]
  Plant response rating, Rape: 4
Smallflower flatsedge; [9]
  Plant response rating, S. Flatsedge (0 to 10 scale, 0 is no effect, 10 is complete control): 0
Smallflower flatsedge; [10]
  S. Flatsedge plant response rating (0 to 10 scale, 0 is no effect, 10 is complete control): 0
Smallflower flatsedge; [11]
  S. Flatsedge plant response rating: 0
Smallflower flatsedge; [12]
  S. Flatsedge plant response rating: 0
velvetleaf; [1]
  Plant response rating, Velvetleaf: 0
velvetleaf; [2]
  Plant response rating, Velvetleaf: 0
velvetleaf; [3]
  Velvetleaf plant response rating: 0
velvetleaf; [5]
  Velvetleaf plant response rating: 0
velvetleaf; [6]
  Velvetleaf plant response rating: 0
velvetleaf; [7]
  Plant response rating, Velvetleaf: 1
velvetleaf; [8]
  Plant response rating, Velvetleaf: 6
cocklebur; [1]
  Plant response rating, Cocklebur: 0
cocklebur; [2]
  Plant response rating, Cocklebur: 0
cocklebur; [3]
  Cocklebur plant response rating: 0
cocklebur; [4]
  Plant response rating, Cocklebur: 0
cocklebur; [5]
  Cocklebur plant response rating: 0
cocklebur; [6]
  Cocklebur plant response rating: 0
cocklebur; [7]
  Plant response rating, Cocklebur: 0
cocklebur; [8]
  Plant response rating, Cocklebur: 0
bamyardgrass; [9]
  Plant response rating, Barnyardgrass (0 to 10 scale, 0 is no effect, 10 is complete control): 0
bamyardgrass; [10]
  Barnyardgrass plant response rating (0 to 10 scale, 0 is no effect, 10 is complete control): 0
bamyardgrass; [11]
  Barnyardgrass plant response rating: 0
bamyardgrass; [12]
  Barnyardgrass plant response rating: 0
wheat; [1]
  Plant response rating, Wheat: 0
wheat; [2]
  Plant response rating, Wheat: 0
wheat; [3]
  Wheat plant response rating: 0
wheat; [5]
  Wheat plant response rating: 0
wheat; [6]
  Wheat plant response rating: 0
wheat; [7]
  Plant response rating, Wheat: 0
wheat; [8]
  Plant response rating, Wheat: 3
Duck salad; [9]
  Plant response rating, Ducksalad (0 to 10 scale, 0 is no effect, 10 is complete control): 0
Duck salad; [10]
  Ducksalad plant response rating (0 to 10 scale, 0 is no effect, 10 is complete control): 0
Duck salad; [11]
  Ducksalad plant response rating: 0
Duck salad; [12]
  Ducksalad plant response rating: 0
Wild oat; [1]
  Plant response rating, Wild oats: 0
Wild oat; [2]
  Plant response rating, Wild oats: 0
Wild oat; [3]
  Wild oats plant response rating: 0
Wild oat; [5]
  Wild oats plant response rating: 0
Wild oat; [6]
  Wild oats plant response rating: 0
Wild oat; [7]
  Plant response rating, Wild oats: 3
Wild oat; [8]
  Plant response rating, Wild oats: 5
crabgrass; [1]
  Plant response rating, Crabgrass: 1
crabgrass; [2]
  Plant response rating, Crabgrass: 0
crabgrass; [3]
  Crabgrass plant response rating: 4
crabgrass; [4]
  Plant response rating, Crabgrass: 8
crabgrass; [5]
  Crabgrass plant response rating: 2
crabgrass; [6]
  Crabgrass plant response rating: 7
crabgrass; [7]
  Plant response rating, Crabgrass: 8
crabgrass; [8]
  Plant response rating, Crabgrass: 10
blackgrass; [1]
  Plant response rating, Blackgrass: 0
blackgrass; [2]
  Plant response rating, Blackgrass: 2
blackgrass; [3]
  Blackgrass plant response rating: 7
blackgrass; [4]
  Plant response rating, Blackgrass: 7
blackgrass; [5]
  Blackgrass plant response rating: 0
blackgrass; [6]
  Blackgrass plant response rating: 3
blackgrass; [7]
  Plant response rating, Blackgrass: 7
blackgrass; [8]
  Plant response rating, Blackgrass: 9
Purple nutsedge; [1]
  Plant response rating, Nutsedge: 0
Purple nutsedge; [2]
  Plant response rating, Nutsedge: 0
Purple nutsedge; [3]
  Nutsedge plant response rating: 0
Purple nutsedge; [5]
  Nutsedge plant response rating: 0
Purple nutsedge; [6]
  Nutsedge plant response rating: 0
Purple nutsedge; [7]
  Plant response rating, Nutsedge: 0
Purple nutsedge; [8]
  Plant response rating, Nutsedge: 0
soybean; [1]
  Plant response rating, Soybean: 0
soybean; [2]
  Plant response rating, Soybean: 2
soybean; [3]
  Soybean plant response rating: 3
soybean; [5]
  Soybean plant response rating: 0
soybean; [6]
  Soybean plant response rating: 0
soybean; [7]
  Plant response rating, Soybean: 0
soybean; [8]
  Plant response rating, Soybean: 0
Sugar beet; [1]
  Plant response rating, Sugarbeets: 0
Sugar beet; [2]
  Plant response rating, Sugarbeets: 0
Sugar beet; [3]
  Sugarbeets plant response rating: 0
Sugar beet; [5]
  Sugarbeets plant response rating: 0
Sugar beet; [6]
  Sugarbeets plant response rating: 0
Sugar beet; [7]
  Plant response rating, Sugarbeets: 0
Sugar beet; [8]
  Plant response rating, Sugarbeets: 0

— patent US6737383B1, “Herbicidal oxadiazolidines” (priority 1999, dated 2004)
